What was measured:
clinical = conditions: for Tmax / Cmax: human
Experimental: (§1) The study was a randomized, single-blinded (the participants were informed that they could receive different doses of alcohol in the two sessions), and crossover clinical trial. Subjects participated in two different experimental sessions separated by at least 3 days. In one session they received a glass of water (240 mL) and 2 h later a single oral dose of alcohol was administered (0.5 g/kg, Vodka Absolut® 40°, Sweden); in the other, they were given four capsules containing a soy extract product with a glass of water (240 mL) and 2 h later the same dose of alcohol.
A commercial soy extract product (Super-Absorbable Soy Isoflavones®, hard gelatin capsules, Life-Extension, United States) was employed. According to the manufacturer each capsule contained 54 mg of total isoflavones (22 mg daidzin-daidzein, 28 mg genistin-genistein, and 4 mg glycitin-glycitein).
Ethanol was determined in blood (DRI® Ethyl Alcohol Assay, Thermo Fisher, Fremont, CA, United States) and breath (Alcotest, Dräger, Germany).

healthy male volunteers [1] = test: Subjective and adverse effects by visual analog scales (VAS, 100 mm)
Experimental: as §1
Subjective effects were evaluated using a set of visual analog scales (VAS) at baseline (0 h), 2, 2.25, 2.5, 2.75, 3, 3.5, 4, 5, 6, 8, and 10 h after first administration. VAS (100 mm) were labeled with different adjectives marked at opposite ends from “not at all” to “extremely” ([Peiró et al., 2013]; [Farré et al., 2015]; [Papaseit et al., 2016]). Subjects were asked to rate effects of drunkenness, content, nausea, vertigo, dizziness, feeling of face flushing, headache, and breathing difficulty.
(§2) Differences with respect to baseline were calculated for vital signs (SBP, DBP, HR, and OT-FT) and subjective effects (VAS, ARCI). Maximum/peak effects (Emax) and the time to reach maximum effects (tmax) were also determined for the previously mentioned variables. The area under the curve of the concentrations from 0 to 10 h (AUC0-10 h) using the trapezoidal rule was calculated for vital signs and subjective effects.
(§3) For the statistical comparison of AUC and Emax a Student’s t-test for paired samples was employed. For tmax a non-parametric Wilcoxon test was used. A repeated measure ANOVA with two factors (treatment and time) was used to compare the time course of effects. When treatment or the treatment × time interaction was statistically significant, multiple Tukey post hoc comparisons were performed at each time point.

[2] = Pharmacokinetics of alcohol (ethanol) in plasma
Experimental: as §1
Blood samples and ethanol breath concentrations were collected at baseline (before soy extract administration), and at 2 (before ethanol administration), 2.25, 2.5, 2.75, 3, 4, 5, 6, 7, 8, 10, and 24 h after soy extract administration. Ethanol was determined in blood (DRI® Ethyl Alcohol Assay, Thermo Fisher, Fremont, CA, United States) and breath (Alcotest, Dräger, Germany). Daidzein, genistein, and the endogenous metabolite equol were determined by liquid chromatography coupled to tandem mass spectrometry (LC/MS/MS) using a validated method ([Rodríguez-Morató et al., 2015]).
Peak concentration (Cmax), time to reach peak concentrations (Tmax), and area under the concentration-time curve from 0 to 10 h (AUC0-10) from ethanol plasma concentrations over time were determined using Pharmacokinetic Functions for Microsoft Excel (Joel Usansky, Atul Desai, and Diane Tang-Liu, Department of Pharmacokinetics and Drug Metabolism, Allergan, Irvine, CA, United States).

healthy male volunteers [3] = test: Physiological effects (vital signs: SBP, DBP, HR, oral and cutaneous facial temperature) after alcohol with or without soy extract; conditions: difference with respect to baseline; for FT Emax: cutaneous facial temperature
Experimental: as §1
Non-invasive systolic blood pressure (SBP), diastolic blood pressure (DBP), heart rate (HR), oral and cutaneous facial temperature (OT, FT) were repeatedly recorded at baseline, immediately before capsule administration, and at 2 (immediately before beverage administration), 2.5, 3, 4, 5, 6, 8, and 10 h after first administration. All assessments were carried out with a DinamapTM 8100-T vital signs monitor (Critikon, Tampa, FL, United States). Cutaneous facial temperature was measured at the same time with an additional monitor (Critikon, Tampa, FL, United States).
as §2, §3

healthy male volunteers [4] = test: Addiction Research Center Inventory (ARCI) 49-item short form questionnaire; type: in vivo, human; conditions: n = 10
male mice = test system: male mice; set-up: method as in Martin et al., 2013; conditions: ref Martin et al., 2013; cited from earlier work
[5] = difference with respect to baseline, AUC 0-10 h, n = 10
[6] = difference with respect to baseline, peak effect, n = 10
[7] = alcohol 0.5 g/kg oral, 2 h after soy extract (four capsules) or water, Mean ± SD, n = 10

Oc1ccc([C@H]2COc3cc(O)ccc3C2)cc1 [equol]
Tmax (clinical; in vivo, po, time of peak plasma concentration): 24 h

CCO [Alcohol, ethanol]
VAS score for headache at 8 h (healthy male volunteers [1]; 8 h after first administration, p < 0.01): 16 mm
VAS Content AUC0-10 (healthy male volunteers [1]; [5]): 29.91 ± 47.07
VAS Drunkenness AUC0-10 (healthy male volunteers [1]; [5]): 25.387 ± 35.1
VAS Breathing difficulty Emax (healthy male volunteers [1]; [6]): 0 mm
VAS Content Emax (healthy male volunteers [1]; [6]): 23.9 ± 26.2 mm
VAS Dizziness Emax (healthy male volunteers [1]; [6]): 10.9 ± 18.3 mm
VAS Drunkenness Emax (healthy male volunteers [1]; [6]): 20.8 ± 19.1 mm
VAS Face flushing Emax (healthy male volunteers [1]; [6]): 9.6 ± 14.9 mm
VAS Headache Emax (healthy male volunteers [1]; [6]): 16.2 ± 27.9 mm
VAS Nausea Emax (healthy male volunteers [1]; [6]): 0.8 ± 1.75 mm
VAS Vertigo Emax (healthy male volunteers [1]; [6]): 2.2 ± 6.9 mm
alcohol concentrations in plasma 10 h after drug administration ([2]; 10 h after drug administration): undetectable
AUC0-10 of alcohol in plasma [2, 7]: 219.67 ± 27.2 ng/mL/h
Cmax of alcohol in plasma [2, 7]: 77 ± 22.25 ng/mL
FT Emax (healthy male volunteers [3]; peak effect, n = 10): 1.59 ± 0.67 °C
FT Emax (healthy male volunteers [3]; peak effect, n = 10, listed as alcohol): 1.59 °C
DBP Emax (healthy male volunteers [3]; diastolic blood pressure, peak effect, n = 10): –10.5 ± 8.72 mmHg
HR Emax (healthy male volunteers [3]; heart rate, peak effect, n = 10): –1.2 ± 15.26 beats/min
OT Emax (healthy male volunteers [3]; oral temperature, peak effect, n = 10): –0.23 ± 0.47
SBP Emax (healthy male volunteers [3]; systolic blood pressure, peak effect, n = 10): –9.2 ± 11.05 mmHg
reduction of DBP at 2 h (healthy male volunteers [3]; time course, 2 h after first administration, p < 0.05): -2.89
reduction of DBP at 3 h (healthy male volunteers [3]; time course, 3 h after first administration, p < 0.05): -4.5
reduction of DBP at 4 h (healthy male volunteers [3]; time course, 4 h after first administration, p < 0.01): -9.67
reduction of DBP at 8 h (healthy male volunteers [3]; time course, 8 h after first administration, p < 0.05): -4.78
ARCI-MBG AUC0-10 (healthy male volunteers [4]; euphoria subscale, AUC 0-10 h): 3.4 ± 3.2
ARCI-MBG Emax (healthy male volunteers [4]; euphoria subscale, difference with respect to baseline, peak effect): 2.7 ± 3.3
ARCI-LSD Emax (healthy male volunteers [4]; first ARCI-LSD line of Table 1 (r36), dysphoria and somatic symptoms subscale, peak effect): 5.2 ± 1.7
ARCI-LSD AUC0-10 (healthy male volunteers [4]; first ARCI-LSD line of Table 1 (r37), AUC 0-10 h): 43.2 ± 8.27
ARCI-BG ARCI-A Emax (healthy male volunteers [4]; line printed ARCI-BG ARCI-A (r40), peak effect): 1.8 ± 1.686
ARCI-BG ARCI-A AUC0-10 (healthy male volunteers [4]; line printed ARCI-BG ARCI-A (r41), AUC 0-10 h): 4.5 ± 4.47
ARCI-LSD Emax (healthy male volunteers [4]; second line printed ARCI-LSD in Table 1 (r38), peak effect): 4.6 ± 1.07
ARCI-LSD AUC0-10 (healthy male volunteers [4]; second line printed ARCI-LSD in Table 1 (r39), AUC 0-10 h): 36.7 ± 5.5
ARCI-PCAG AUC0-10 (healthy male volunteers [4]; sedation subscale, AUC 0-10 h): 14.05 ± 14.2
ARCI-PCAG Emax (healthy male volunteers [4]; sedation subscale, difference with respect to baseline, peak effect): 3.4 ± 3.59

O=c1c(-c2ccc(O)cc2)coc2cc(O)ccc12 [daidzein]
cocaine-reinforcing effects (male mice): decreased
cue-induced cocaine relapse (male mice): reduced
time of peak plasma concentration (clinical; after four capsules of soy extract, oral, n = 10): around 6 h
Tmax (clinical; plasma, oral, 4 capsules, Tmax for the first peak, first of double peaks in plasma after soy extract): 2 to 4 h
Cmax (clinical; plasma, po, 4 capsules): 1020 ng/mL
Tmax (clinical; plasma, po, 4 capsules, time of peak plasma concentration, after four capsules of soy extract, oral, n = 10): 6.1 h

O=c1c(-c2ccc(O)cc2)coc2cc(O)cc(O)c12 [genistein]
cocaine-reinforcing effects (male mice): decreased
cue-induced cocaine relapse (male mice): not
Tmax (clinical; in vivo, 4 capsules, Tmax for the first peak, first of double peaks in plasma after soy extract): 2 to 4 h
Cmax (clinical; in vivo, po, 4 capsules): 1040 ng/mL
Tmax (clinical; in vivo, po, 4 capsules, time of peak plasma concentration, after four capsules of soy extract, oral, n = 10): 7.3 h

— paper PMC6400998, “Soy Isoflavone Extract Does Not Increase the Intoxicating Effects of Acute Alcohol Ingestion in Human Volunteers” (Frontiers in Pharmacology, 2019)
